# Assay results taken from patent publication US20240124427A1, “HYDROXYHETEROCYCLOALKANE-CARBAMOYL DERIVATIVES” (Idorsia Pharmaceuticals Ltd, priority 2021, published 2024).
# Target: human Gal-3 (hGal-3) (Homo sapiens (Human), UniProt P17931)
# Assay: Competitive binding assay: biotinylated hGal-3 binding to microplate-adsorbed asialofetuin (ASF)
# Conditions: Activity on hGal-3; mean values of several measurements; mixture of diastereomers measured where not separated
# Method: The inhibitory activity of compounds is determined in competitive binding assays. This spectrophotometric assay measures the binding of biotinylated human Gal-3 (hGal-3) or human Gal-1 (hGal-1), respectively, to a microplate-adsorbed glycoprotein, asialofetuin (ASF) (Proc Natl Acad Sci USA. 2013 Mar 26;110(13):5052-7.). Alternatively, and preferably, a human Gal-1 version in which all six cysteines are substituted by serines may be used.
# Briefly, compounds are serially diluted in DMSO (working dilutions).
# Plates are incubated for 3 hours at 4° C., then washed with cold assay buffer (3×50 uL), incubated for 1 hour with 25 μL/well of a streptavidin-peroxidase solution (diluted in assay buffer to 80 ng/mL) at 4° C., followed by further washing steps with assay buffer (3×50 uL). Finally, 25 μL/well of ABTS substrate is added.
# The calculated IC50 values may fluctuate depending on the daily assay performance. Fluctuations of this kind are known to those skilled in the art. IC50 values from several measurements are given as mean values.
# human Gal-3 (hGal-3), sequence (P17931 whole entry): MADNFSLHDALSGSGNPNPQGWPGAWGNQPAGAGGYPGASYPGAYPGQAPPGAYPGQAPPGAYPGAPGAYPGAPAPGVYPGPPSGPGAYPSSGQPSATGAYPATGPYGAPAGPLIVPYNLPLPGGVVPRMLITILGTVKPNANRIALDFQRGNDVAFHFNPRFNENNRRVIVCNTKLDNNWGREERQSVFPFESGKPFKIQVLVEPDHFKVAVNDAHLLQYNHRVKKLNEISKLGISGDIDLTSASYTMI
row,SMILES,IC50 [nM]
1,"CO[C@@H]1[C@@H](n2cc(-c3cc(F)c(F)c(F)c3)nn2)[C@@H](O)[C@@H](CO)O[C@H]1C(=O)N(c1cccc(I)c1)[C@H]1COC[C@@H]1O [Example 3, (2R,3R,4S,5R,6R)-5-hydroxy-6-(hydroxymethyl)-N-((3S,4R)-4-hydroxytetrahydrofuran-3-yl)-N-(3-iodophenyl)-3-methoxy-4-(4-(3,4,5-trifluorophenyl)-1H-1,2,3-triazol-1-yl)tetrahydro-2H-pyran-2-carboxamide]",56
2,"CO[C@@H]1[C@@H](n2cc(-c3cc(F)c(F)c(F)c3)nn2)[C@@H](O)[C@@H](CO)O[C@H]1C(=O)N(c1cc(Br)cc(Br)c1)[C@H]1COC[C@@H]1O [Example 6, (2R,3R,4S,5R,6R)-N-(3,5-dibromophenyl)-5-hydroxy-6-(hydroxymethyl)-N-((3S,4R)-4-hydroxytetrahydrofuran-3-yl)-3-methoxy-4-(4-(3,4,5-trifluorophenyl)-1H-1,2,3-triazol-1-yl)tetrahydro-2H-pyran-2-carboxamide]",53
3,"CO[C@@H]1[C@@H](n2cc(-c3ccc(Br)c(F)c3F)nn2)[C@@H](O)[C@@H](CO)O[C@H]1C(=O)N(c1cc(Br)cc(C#N)c1)[C@H]1COC[C@@H]1O [Example 13, (2R,3R,4S,5R,6R)-4-(4-(4-bromo-2,3-difluorophenyl)-1H-1,2,3-triazol-1-yl)-N-(3-bromo-5-cyanophenyl)-5-hydroxy-6-(hydroxymethyl)-N-((3S,4R)-4-hydroxytetrahydrofuran-3-yl)-3-methoxytetrahydro-2H-pyran-2-carboxamide]",15
4,"CO[C@@H]1[C@@H](n2cc(-c3ccc(Br)c(F)c3F)nn2)[C@@H](O)[C@@H](CO)O[C@H]1C(=O)N(c1cc(C)cc(Br)c1)[C@H]1COC[C@@H]1O [Example 14, (2R,3R,4S,5R,6R)-4-(4-(4-bromo-2,3-difluorophenyl)-1H-1,2,3-triazol-1-yl)-N-(3-bromo-5-methylphenyl)-5-hydroxy-6-(hydroxymethyl)-N-((3S,4R)-4-hydroxytetrahydrofuran-3-yl)-3-methoxytetrahydro-2H-pyran-2-carboxamide]",46
5,"CO[C@@H]1[C@@H](n2cc(-c3cc(F)c(C)c(F)c3)nn2)[C@@H](O)[C@@H](CO)O[C@H]1C(=O)N(c1cc(Cl)cc(Cl)c1)[C@H]1COC[C@@H]1O [Example 15, (2R,3R,4S,5R,6R)-N-(3,5-dichlorophenyl)-4-(4-(3,5-difluoro-4-methylphenyl)-1H-1,2,3-triazol-1-yl)-5-hydroxy-6-(hydroxymethyl)-N-((3S,4R)-4-hydroxytetrahydrofuran-3-yl)-3-methoxytetrahydro-2H-pyran-2-carboxamide]",38
6,"CO[C@@H]1[C@@H](n2cc(-c3cc(F)c(C)c(F)c3)nn2)[C@@H](O)[C@@H](CO)O[C@H]1C(=O)N(c1cc(Br)cc(C#N)c1)[C@H]1COC[C@@H]1O [Example 17, (2R,3R,4S,5R,6R)-N-(3-bromo-5-cyanophenyl)-4-(4-(3,5-difluoro-4-methylphenyl)-1H-1,2,3-triazol-1-yl)-5-hydroxy-6-(hydroxymethyl)-N-((3S,4R)-4-hydroxytetrahydrofuran-3-yl)-3-methoxytetrahydro-2H-pyran-2-carboxamide]",66
7,"CO[C@@H]1[C@@H](n2cc(-c3cc(F)c(C)c(F)c3)nn2)[C@@H](O)[C@@H](CO)O[C@H]1C(=O)N(c1cc(C)cc(Br)c1)[C@H]1COC[C@@H]1O [Example 18, (2R,3R,4S,5R,6R)-N-(3-bromo-5-methylphenyl)-4-(4-(3,5-difluoro-4-methylphenyl)-1H-1,2,3-triazol-1-yl)-5-hydroxy-6-(hydroxymethyl)-N-((3S,4R)-4-hydroxytetrahydrofuran-3-yl)-3-methoxytetrahydro-2H-pyran-2-carboxamide]",69
8,"CO[C@@H]1[C@@H](n2cc(-c3ccc(C)c(F)c3F)nn2)[C@@H](O)[C@@H](CO)O[C@H]1C(=O)N(c1cc(Cl)cc(Cl)c1)[C@H]1COC[C@@H]1O [Example 19, (2R,3R,4S,5R,6R)-N-(3,5-dichlorophenyl)-4-(4-(2,3-difluoro-4-methylphenyl)-1H-1,2,3-triazol-1-yl)-5-hydroxy-6-(hydroxymethyl)-N-((3S,4R)-4-hydroxytetrahydrofuran-3-yl)-3-methoxytetrahydro-2H-pyran-2-carboxamide]",40
9,"CO[C@@H]1[C@@H](n2cc(-c3ccc(C)c(F)c3F)nn2)[C@@H](O)[C@@H](CO)O[C@H]1C(=O)N(c1cc(Br)cc(C#N)c1)[C@H]1COC[C@@H]1O [Example 20, (2R,3R,4S,5R,6R)-N-(3-bromo-5-cyanophenyl)-4-(4-(2,3-difluoro-4-methylphenyl)-1H-1,2,3-triazol-1-yl)-5-hydroxy-6-(hydroxymethyl)-N-((3S,4R)-4-hydroxytetrahydrofuran-3-yl)-3-methoxytetrahydro-2H-pyran-2-carboxamide]",31

# Next, values leading:
row,IC50 [nM],SMILES
1,102,"CO[C@@H]1[C@@H](n2cc(-c3cc(F)c(F)c(F)c3)nn2)[C@@H](O)[C@@H](CO)O[C@H]1C(=O)N(c1cccc(Cl)c1)[C@H]1COC[C@@H]1O [Example 1, (2R,3R,4S,5R,6R)-N-(3-chlorophenyl)-5-hydroxy-6-(hydroxymethyl)-N-((3S,4R)-4-hydroxytetrahydrofuran-3-yl)-3-methoxy-4-(4-(3,4,5-trifluorophenyl)-1H-1,2,3-triazol-1-yl)tetrahydro-2H-pyran-2-carboxamide]"
2,80,"CO[C@@H]1[C@@H](n2cc(-c3cc(F)c(F)c(F)c3)nn2)[C@@H](O)[C@@H](CO)O[C@H]1C(=O)N(c1cccc(Br)c1)[C@H]1COC[C@@H]1O [Example 2, (2R,3R,4S,5R,6R)-N-(3-bromophenyl)-5-hydroxy-6-(hydroxymethyl)-N-((3S,4R)-4-hydroxytetrahydrofuran-3-yl)-3-methoxy-4-(4-(3,4,5-trifluorophenyl)-1H-1,2,3-triazol-1-yl)tetrahydro-2H-pyran-2-carboxamide]"
3,69,"CO[C@@H]1[C@@H](n2cc(-c3cc(F)c(F)c(F)c3)nn2)[C@@H](O)[C@@H](CO)O[C@H]1C(=O)N(c1cc(Cl)cc(C#N)c1)[C@H]1COC[C@@H]1O [Example 5, (2R,3R,4S,5R,6R)-N-(3-chloro-5-cyanophenyl)-5-hydroxy-6-(hydroxymethyl)-N-((3S,4R)-4-hydroxytetrahydrofuran-3-yl)-3-methoxy-4-(4-(3,4,5-trifluorophenyl)-1H-1,2,3-triazol-1-yl)tetrahydro-2H-pyran-2-carboxamide]"
4,77,"CO[C@@H]1[C@@H](n2cc(-c3cc(F)c(F)c(F)c3)nn2)[C@@H](O)[C@@H](CO)O[C@H]1C(=O)N(c1cc(C)cc(Br)c1)[C@H]1COC[C@@H]1O [Example 8, (2R,3R,4S,5R,6R)-N-(3-bromo-5-methylphenyl)-5-hydroxy-6-(hydroxymethyl)-N-((3S,4R)-4-hydroxytetrahydrofuran-3-yl)-3-methoxy-4-(4-(3,4,5-trifluorophenyl)-1H-1,2,3-triazol-1-yl)tetrahydro-2H-pyran-2-carboxamide]"
5,101,"COc1cc(C#N)cc(N(C(=O)[C@@H]2O[C@H](CO)[C@H](O)[C@H](n3cc(-c4cc(F)c(F)c(F)c4)nn3)[C@H]2OC)[C@H]2COC[C@@H]2O)c1 [Example 9, (2R,3R,4S,5R,6R)-N-(3-cyano-5-methoxyphenyl)-5-hydroxy-6-(hydroxymethyl)-N-((3S,4R)-4-hydroxytetrahydrofuran-3-yl)-3-methoxy-4-(4-(3,4,5-trifluorophenyl)-1H-1,2,3-triazol-1-yl)tetrahydro-2H-pyran-2-carboxamide]"
6,136,"CO[C@@H]1[C@@H](n2cc(-c3cc(F)c(F)c(F)c3)nn2)[C@@H](O)[C@@H](CO)O[C@H]1C(=O)N(c1cc(C)cc(C#N)c1)[C@H]1COC[C@@H]1O [Example 10, (2R,3R,4S,5R,6R)-N-(3-cyano-5-methylphenyl)-5-hydroxy-6-(hydroxymethyl)-N-((3S,4R)-4-hydroxytetrahydrofuran-3-yl)-3-methoxy-4-(4-(3,4,5-trifluorophenyl)-1H-1,2,3-triazol-1-yl)tetrahydro-2H-pyran-2-carboxamide]"
7,124,"CO[C@@H]1[C@@H](n2cc(-c3cc(F)c(F)c(F)c3)nn2)[C@@H](O)[C@@H](CO)O[C@H]1C(=O)N(c1cc(F)cc(C#N)c1)[C@H]1COC[C@@H]1O [Example 11, (2R,3R,4S,5R,6R)-N-(3-cyano-5-fluorophenyl)-5-hydroxy-6-(hydroxymethyl)-N-((3S,4R)-4-hydroxytetrahydrofuran-3-yl)-3-methoxy-4-(4-(3,4,5-trifluorophenyl)-1H-1,2,3-triazol-1-yl)tetrahydro-2H-pyran-2-carboxamide]"
8,47,"CO[C@@H]1[C@@H](n2cc(-c3ccc(Br)c(F)c3F)nn2)[C@@H](O)[C@@H](CO)O[C@H]1C(=O)N(c1cc(Cl)cc(Cl)c1)[C@H]1COC[C@@H]1O [Example 12, (2R,3R,4S,5R,6R)-4-(4-(4-bromo-2,3-difluorophenyl)-1H-1,2,3-triazol-1-yl)-N-(3,5-dichlorophenyl)-5-hydroxy-6-(hydroxymethyl)-N-((3S,4R)-4-hydroxytetrahydrofuran-3-yl)-3-methoxytetrahydro-2H-pyran-2-carboxamide]"
9,61,"CO[C@@H]1[C@@H](n2cc(-c3cc(F)c(C)c(F)c3)nn2)[C@@H](O)[C@@H](CO)O[C@H]1C(=O)N(c1cc(Br)cc(Br)c1)[C@H]1COC[C@@H]1O [Example 16, (2R,3R,4S,5R,6R)-N-(3,5-dibromophenyl)-4-(4-(3,5-difluoro-4-methylphenyl)-1H-1,2,3-triazol-1-yl)-5-hydroxy-6-(hydroxymethyl)-N-((3S,4R)-4-hydroxytetrahydrofuran-3-yl)-3-methoxytetrahydro-2H-pyran-2-carboxamide]"
